Laboratory results taken from patent publication US8551999B2, “Heterocyclic compound and pharmaceutical composition thereof” (Otsuka Pharmaceutical Co., Ltd., priority 2007, dated 2013).

With `Br.CCOc1ccc(CN2CCN(C(=O)c3cc4ccc(Oc5ccc(N(C)C(=O)c6ccc(C(F)(F)F)cc6)cn5)cc4n3C)CC2)cc1` [Example 419, N-(6-{2-[4-(4-Ethoxybenzyl)piperazine-1-carbonyl]-1-methyl-1H-indol-6-yloxy}pyridin-3-yl)-N-methyl-4-trifluoromethylbenzamide hydrobromide] the melting point was 241 to 243 °C.
Work on `CC(C)CN1CCN(C(=O)c2cc3ccc(Oc4ccc(N(C)C(=O)c5ccc(C(F)(F)F)cc5)cn4)cc3n2C)CC1.Cl` yielded a melting point of 253.1 to 254.5 °C.
Molecule `Br.CCCOc1ccc(CN2CCN(C(=O)c3cc4cc(Oc5ccc(NC(=O)c6ccc(C(F)(F)F)cc6)cn5)ccc4n3C)CC2)cc1` [Example 481, N-(6-{1-Methyl-2-[4-(4-propoxybenzyl)piperazine-1-carbonyl]-1H-indol-5-yloxy}pyridin-3-yl)-4-trifluoromethylbenzamide hydrobromide] has a melting point of 234.7 to 235.1 °C.
For `Br.CCCOc1ccc(CN2CCN(C(=O)c3cc4cc(Oc5ccc(NC(=O)c6ccc(Cl)c(Cl)c6)cn5)ccc4n3C)CC2)cc1` [Example 369, 3,4-Dichloro-N-(6-{1-methyl-2-[4-(4-propoxybenzyl)piperazine-1-carbonyl]-1H-indol-5-yloxy}pyridin-3-yl)benzamide hydrobromide], the melting point was 249 to 252 °C (dec.).
Work on `Br.CCCc1ccc(CN2CCN(C(=O)c3cc4ccc(Oc5ccc(N(C)C(=O)c6ccc(C(F)(F)F)cc6)cn5)cc4n3C)CC2)cc1` [Example 431, N-Methyl-N-(6-{1-methyl-2-[4-(4-propylbenzyl)piperazine-1-carbonyl]-1H-indol-6-yloxy}pyridin-3-yl)-4-trifluoromethyl-benzamide hydrobromide] yielded a melting point of 255 to 257 °C.
In the case of `CC(C)c1ccc(CN2CCN(C(=O)c3cc4cc(Oc5ccc(N(C)C(=O)c6ccc(C(F)(F)F)cc6)cn5)ccc4n3C)CC2)cc1.O=C(O)/C=C\C(=O)O` [Example 412, N-(6-{2-[4-(4-Isopropylbenzyl)piperazine-1-carbonyl]-1-methyl-1H-indol-5-yloxy}pyridin-3-yl)-N-methyl-4-trifluoromethylbenzamide maleate], the melting point is reported as 129 to 131 °C.
With `Cc1cc(C(F)(F)F)ccc1C(=O)Nc1ccc(Oc2ccc3cc(C(=O)N4CCN(Cc5ccc6c(c5)OC(F)(F)O6)CC4)n(C)c3c2)nc1.Cl` the melting point was 207.9 to 211.5 °C.
Work on `Br.Cn1c(C(=O)N2CCN(Cc3ccc(OCC(F)F)cc3)CC2)cc2cc(Oc3ccc(NC(=O)c4ccc(Cl)c(Cl)c4)cn3)ccc21` [Example 407, 3,4-Dichloro-N-[6-(2-{4-[4-(2,2-difluoroethoxy)benzyl]piperazine-1-carbonyl}-1-methyl-1H-indol-5-yloxy)pyridin-3-yl]benzamide hydrobromide] yielded a melting point of 241 to 245 °C.
`CN(C(=O)c1ccc(C(F)(F)F)cc1)c1ccc(Oc2ccc3c(c2)cc(C(=O)N2CCN(Cc4ccc(OCCF)cc4)CC2)n3C)nc1.O=C(O)/C=C\C(=O)O` [Example 408, N-[6-(2-{4-[4-(2-Fluoroethoxy)benzyl]piperazine-1-carbonyl}-1-methyl-1H-indol-5-yloxy)pyridin-3-yl]-N-methyl-4-trifluoromethyl-benzamide maleate] gave a melting point of 152 to 154 °C.
`Br.CCn1c(C(=O)N2CCN(Cc3ccc4c(c3)OCO4)CC2)cc2cc(Oc3ccc(N(C)C(=O)c4ccc(C(F)(F)F)cc4)cn3)ccc21` [Example 344, N-{6-[2-(4-Benzo[1,3]dioxol-5-ylmethylpiperazine-1-carbonyl)-1-ethyl-1H-indol-5-yloxy]pyridin-3-yl}-N-methyl-4-trifluoromethyl-benzamide hydrobromide] showed a melting point of 179 to 183 °C.
`Br.COc1ccc(CN2CCN(C(=O)c3cc4ccc(Oc5ccc(N(C)C(=O)c6ccc(C(F)(F)F)cc6)cn5)cc4n3C)CC2)cc1` [Example 322, N-(6-{2-[4-(4-Methoxybenzyl)piperazine-1-carbonyl]-1-methyl-1H-indol-6-yloxy}pyridin-3-yl)-N-methyl-4-trifluoromethylbenzamide hydrobromide] showed a melting point of 233 to 235 °C.
